This assay concerns p27^Kip1 protein expression. Kind of assay: p27^Kip1 immunohistochemistry in biopsy tumor specimens. The class given is in vivo, human. As to conditions: Day 2 of Cycle 1, three patients; data not shown. How it is done: Assessment of pharmacodynamics included evaluation of cullin-NEDD8, p27^Kip1 protein expression, and cytokines in peripheral blood samples. Expression of cullin-NEDD8 protein in peripheral blood mononuclear cells (PBMC) was analyzed using an enzyme-linked immunosorbent assay (ELISA). For the weekly dosing cohorts, changes from baseline in cullin-NEDD8 complexes in the PBMC on Day 1 and Day 2 of Cycle 1 as measured by ELISA were evaluated. For the weekly dosing with lead-in period cohorts, changes from baseline in cullin-NEDD8 complexes on Day 2 were evaluated. Expression of p27^Kip1 protein (cyclin-dependent kinase inhibitor 1B), a substrate of CRL, was determined by immunohistochemistry (IHC). p27^Kip1 IHC was performed on biopsy tumor specimens collected at baseline and Day 2 of Cycle 1, and their staining intensities were assessed using H-Scoring, with the scores compared between baseline and Day 2 of Cycle 1. […]

`CCOc1cccc(F)c1C#Cc1cn([C@@H]2O[C@H](CNS(N)(=O)=O)[C@@H](O)[C@H]2O)c2ncnc(N)c12` [TAS4464]: the “expression of p27^Kip1 in tumor specimens versus baseline” value is reported as “almost unchanged or decreased”.

Source of the values: PMC8279981, “A first-in-human, phase 1 study of the NEDD8 activating enzyme E1 inhibitor TAS4464 in patients with advanced solid tumors” (Investigational New Drugs, 2021).
